{"source": "paper PMC2810191", "about": "(Biochemistry, 2009)", "origin": "cited, not measured here", "tested_on": "Bacillus anthracis"}
{"smiles": "CCc1nc(N)nc(N)c1C#CCc1cc(OC)ccc1OC", "note": "[UCP120B, 2,4-diamino-5-(3-(2,5-dimethoxyphenyl)prop-1-ynyl)-6-ethyl-pyrimidine]", "values": [{"measurement": "inhibition of growth of the bacteria", "value": "modestly inhibits the growth of the bacteria"}]}
